According to US10787452B2 (Vertex Pharmaceuticals Incorporated, priority 2012, dated 2020):

System: HCT116 colorectal cancer cells
Test: Cisplatin sensitization assay (96 h cell viability MTS);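 further: compound concentration needed to lower the Cisplatin-alone IC50 by a set fold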
Type: cell-based
Conditions: 96 h MTS, compound plus Cisplatin
Summary of the method: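 HCT116 cells were co-treated with compound and cisplatin, each in 2-fold serial dilutions from a 10 μM top final concentration, as a full matrix. After 96 h at 37 °C, 5% CO2, viability was read by MTS following a 1 h incubation with reagent.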

Row | Compound | Cisplatin Sensitization Assay
1 | Nc1nn2cc(F)cnc2c1C(=O)Nc1cncc(F)c1N1CCC(C(=O)N2CC(F)C2)CC1 [I-G-74, 2-amino-6-fluoro-N-(5-fluoro-4-(4-(3-fluoroazetidine-1-carbonyl)piperidin-1-yl)pyridin-3-yl)pyrazolo[1,5-a]pyrimidine-3-carboxamide] | +++ (Compounds with a Cisplatin sensitization value of <0.02 μM are marked with “+++.”)
2 | COC1(C)CN(C(=O)C2CCN(c3c(F)cncc3NC(=O)c3c(N)nn4cc(F)cnc34)CC2)C1 [I-G-75, 2-amino-6-fluoro-N-(5-fluoro-4-(4-(3-methoxy-3-methylazetidine-1-carbonyl)piperidin-1-yl)pyridin-3-yl)pyrazolo[1,5-a]pyrimidine-3-carboxamide] | +++ (Compounds with a Cisplatin sensitization value of <0.02 μM are marked with “+++.”)
3 | N#CC1CN(C(=O)C2CCN(c3c(F)cncc3NC(=O)c3c(N)nn4cc(F)cnc34)CC2)C1 [I-G-76, 2-amino-N-(4-(4-(3-cyanoazetidine-1-carbonyl)piperidin-1-yl)-5-fluoropyridin-3-yl)-6-fluoropyrazolo[1,5-a]pyrimidine-3-carboxamide] | +++ (Compounds with a Cisplatin sensitization value of <0.02 μM are marked with “+++.”)
4 | Nc1nn2cc(F)cnc2c1C(=O)Nc1cnccc1N1CCC(C(=O)N2CCC2)CC1 [I-G-77, 2-amino-N-(4-(4-(azetidine-1-carbonyl)piperidin-1-yl)pyridin-3-yl)-6-fluoropyrazolo[1,5-a]pyrimidine-3-carboxamide] | +++ (Compounds with a Cisplatin sensitization value of <0.02 μM are marked with “+++.”)
5 | COC1CN(C(=O)C2CCN(c3ccncc3NC(=O)c3c(N)nn4cc(F)cnc34)CC2)C1 [I-G-78, 2-amino-6-fluoro-N-(4-(4-(3-methoxyazetidine-1-carbonyl)piperidin-1-yl)pyridin-3-yl)pyrazolo[1,5-a]pyrimidine-3-carboxamide] | +++ (Compounds with a Cisplatin sensitization value of <0.02 μM are marked with “+++.”)
6 | COC1(C)CN(C(=O)C2CCN(c3ccncc3NC(=O)c3c(N)nn4cc(F)cnc34)CC2)C1 [I-G-79, 2-amino-6-fluoro-N-(4-(4-(3-methoxy-3-methylazetidine-1-carbonyl)piperidin-1-yl)pyridin-3-yl)pyrazolo[1,5-a]pyrimidine-3-carboxamide] | +++ (Compounds with a Cisplatin sensitization value of <0.02 μM are marked with “+++.”)
7 | Nc1nn2cc(F)cnc2c1C(=O)Nc1cnccc1N1CCC(C(=O)N2CC(F)(F)C2)CC1 [I-G-80, 2-amino-N-(4-(4-(3,3-difluoroazetidine-1-carbonyl)piperidin-1-yl)pyridin-3-yl)-6-fluoropyrazolo[1,5-a]pyrimidine-3-carboxamide] | +++ (Compounds with a Cisplatin sensitization value of <0.02 μM are marked with “+++.”)
8 | N#CC1CN(C(=O)C2CCN(c3ccncc3NC(=O)c3c(N)nn4cc(F)cnc34)CC2)C1 [I-G-81, 2-amino-N-(4-(4-(3-cyanoazetidine-1-carbonyl)piperidin-1-yl)pyridin-3-yl)-6-fluoropyrazolo[1,5-a]pyrimidine-3-carboxamide] | +++ (Compounds with a Cisplatin sensitization value of <0.02 μM are marked with “+++.”)
9 | Nc1nn2cc(F)cnc2c1C(=O)Nc1cnccc1N1CCC(C(=O)N2CC(F)C2)CC1 [I-G-82, 2-amino-6-fluoro-N-(4-(4-(3-fluoroazetidine-1-carbonyl)piperidin-1-yl)pyridin-3-yl)pyrazolo[1,5-a]pyrimidine-3-carboxamide] | +++ (Compounds with a Cisplatin sensitization value of <0.02 μM are marked with “+++.”)
10 | Nc1nn2cc(F)cnc2c1C(=O)Nc1cnccc1N1CCC(C(=O)N2CCCC2)CC1 [I-G-83, 2-amino-6-fluoro-N-(4-(4-(pyrrolidine-1-carbonyl)piperidin-1-yl)pyridin-3-yl)pyrazolo[1,5-a]pyrimidine-3-carboxamide] | +++ (Compounds with a Cisplatin sensitization value of <0.02 μM are marked with “+++.”)
11 | Nc1nn2cc(F)cnc2c1C(=O)Nc1cnccc1N1CCC(C(=O)N2CCC3(COC3)C2)CC1 [I-G-84, N-(4-(4-(2-oxa-6-azaspiro[3.4]octane-6-carbonyl)piperidin-1-yl)pyridin-3-yl)-2-amino-6-fluoropyrazolo[1,5-a]pyrimidine-3-carboxamide] | +++ (Compounds with a Cisplatin sensitization value of <0.02 μM are marked with “+++.”)
12 | Nc1nn2cc(F)cnc2c1C(=O)Nc1cnccc1N1CCC(C(=O)N2CCOCC2)CC1 [I-G-85, 2-amino-6-fluoro-N-(4-(4-(morpholine-4-carbonyl)piperidin-1-yl)pyridin-3-yl)pyrazolo[1,5-a]pyrimidine-3-carboxamide] | +++ (Compounds with a Cisplatin sensitization value of <0.02 μM are marked with “+++.”)
13 | CS(=O)(=O)C1CN(C(=O)C2CCN(c3c(F)cncc3NC(=O)c3c(N)nn4cc(F)cnc34)CC2)C1 [I-G-86, 2-amino-6-fluoro-N-(5-fluoro-4-(4-(3-(methylsulfonyl)azetidine-1-carbonyl)piperidin-1-yl)pyridin-3-yl)pyrazolo[1,5-a]pyrimidine-3-carboxamide] | +++ (Compounds with a Cisplatin sensitization value of <0.02 μM are marked with “+++.”)
14 | Nc1nn2cc(Cl)cnc2c1C(=O)Nc1cncc(F)c1N1CCC(C(=O)N2CCN3CCC2CC3)CC1 [I-G-87, N-(4-(4-(1,4-diazabicyclo[3.2.2]nonane-4-carbonyl)piperidin-1-yl)-5-fluoropyridin-3-yl)-2-amino-6-chloropyrazolo[1,5-a]pyrimidine-3-carboxamide] | +++ (Compounds with a Cisplatin sensitization value of <0.02 μM are marked with “+++.”)
15 | Nc1nn2cc(F)cnc2c1C(=O)Nc1cnccc1N1CCC(C(=O)N2CC3(COC3)C2)CC1 [I-G-88, N-(4-(4-(2-oxa-6-azaspiro[3.3]heptane-6-carbonyl)piperidin-1-yl)pyridin-3-yl)-2-amino-6-fluoropyrazolo[1,5-a]pyrimidine-3-carboxamide] | +++ (Compounds with a Cisplatin sensitization value of <0.02 μM are marked with “+++.”)
16 | CS(=O)(=O)C1CN(C(=O)C2CCN(c3ccncc3NC(=O)c3c(N)nn4cc(F)cnc34)CC2)C1 [I-G-89, 2-amino-6-fluoro-N-(4-(4-(3-(methylsulfonyl)azetidine-1-carbonyl)piperidin-1-yl)pyridin-3-yl)pyrazolo[1,5-a]pyrimidine-3-carboxamide] | + (Compounds with a Cisplatin sensitization value >0.2 μM but <5 μM are marked with “+.”)
17 | Nc1nn2cc(F)cnc2c1C(=O)Nc1cnccc1N1CCC(C(=O)N2CC3(CCO3)C2)CC1 [I-G-90, N-(4-(4-(1-oxa-6-azaspiro[3.3]heptane-6-carbonyl)piperidin-1-yl)pyridin-3-yl)-2-amino-6-fluoropyrazolo[1,5-a]pyrimidine-3-carboxamide] | +++ (Compounds with a Cisplatin sensitization value of <0.02 μM are marked with “+++.”)
18 | CCOC1CN(C(=O)C2CCN(c3ccncc3NC(=O)c3c(N)nn4cc(F)cnc34)CC2)C1 [I-G-91, 2-amino-N-(4-(4-(3-ethoxyazetidine-1-carbonyl)piperidin-1-yl)pyridin-3-yl)-6-fluoropyrazolo[1,5-a]pyrimidine-3-carboxamide] | +++ (Compounds with a Cisplatin sensitization value of <0.02 μM are marked with “+++.”)
19 | CC1(N2CCN(C(=O)C3CCN(c4c(F)cncc4NC(=O)c4c(N)nn5cc(F)cnc45)CC3)CC2)COC1 [I-G-92, 2-amino-6-fluoro-N-(5-fluoro-4-(4-(4-(3-methyloxetan-3-yl)piperazine-1-carbonyl)piperidin-1-yl)pyridin-3-yl)pyrazolo[1,5-a]pyrimidine-3-carboxamide] | +++ (Compounds with a Cisplatin sensitization value of <0.02 μM are marked with “+++.”)
20 | CO[C@H]1CCN(C(=O)C2CCN(c3ccncc3NC(=O)c3c(N)nn4cc(F)cnc34)CC2)C1 [I-G-94, (S)-2-amino-6-fluoro-N-(4-(4-(3-methoxypyrrolidine-1-carbonyl)piperidin-1-yl)pyridin-3-yl)pyrazolo[1,5-a]pyrimidine-3-carboxamide] | +++ (Compounds with a Cisplatin sensitization value of <0.02 μM are marked with “+++.”)
21 | C[N+]1([O-])CCN(C(=O)C2CCN(c3c(F)cncc3NC(=O)c3c(N)nn4cc(F)cnc34)CC2)CC1 [I-G-95, 4-(1-(3-(2-amino-6-fluoropyrazolo[1,5-a]pyrimidine-3-carboxamido)-5-fluoropyridin-4-yl)piperidine-4-carbonyl)-1-methylpiperazine 1-oxide] | +++ (Compounds with a Cisplatin sensitization value of <0.02 μM are marked with “+++.”)
22 | CN1CC(N2CCN(C(=O)C3CCN(c4c(F)cncc4NC(=O)c4c(N)nn5cc(F)cnc45)CC3)CC2)C1 [I-G-96, 2-amino-6-fluoro-N-(5-fluoro-4-(4-(4-(1-methylazetidin-3-yl)piperazine-1-carbonyl)piperidin-1-yl)pyridin-3-yl)pyrazolo[1,5-a]pyrimidine-3-carboxamide] | +++ (Compounds with a Cisplatin sensitization value of <0.02 μM are marked with “+++.”)
23 | COCC1CN(C(=O)C2CCN(c3c(F)cncc3NC(=O)c3c(N)nn4cc(F)cnc34)CC2)C1 [I-G-98, 2-amino-6-fluoro-N-(5-fluoro-4-(4-(3-(methoxymethyl)azetidine-1-carbonyl)piperidin-1-yl)pyridin-3-yl)pyrazolo[1,5-a]pyrimidine-3-carboxamide] | +++ (Compounds with a Cisplatin sensitization value of <0.02 μM are marked with “+++.”)
24 | CO[C@H]1CCN(C(=O)C2CCN(c3c(F)cncc3NC(=O)c3c(N)nn4cc(F)cnc34)CC2)C1 [I-G-99, (S)-2-amino-6-fluoro-N-(5-fluoro-4-(4-(3-methoxypyrrolidine-1-carbonyl)piperidin-1-yl)pyridin-3-yl)pyrazolo[1,5-a]pyrimidine-3-carboxamide] | +++ (Compounds with a Cisplatin sensitization value of <0.02 μM are marked with “+++.”)
